Source: BindingDB's records for doi:10.1016/j.ejmech.2016.05.044 (Texas A&M University, 2016)

Experiment: Negative allosteric modulator activity at CB1 receptor (unknown origin) expressed in HEK293 cell membrane assessed as reduction in CP55,940-induced [35S]GTPgammaS binding by measuring EC50 of CP55,940 at 3.2 uM incubated for 60 mins by liquid scintillation counting analysis (Rvb = 4.7 nM)

| SMILES | EC50 [nM] |
| --- | --- |
| CCCCCc1c(C(=O)NCCc2ccc(C(=O)c3ccccc3)cc2)[nH]c2ccc(Cl)cc12 | 7.9 |
| CCCCCCc1c(C(=O)NCCc2ccc(N=[N+]=[N-])cc2)[nH]c2ccc(Cl)cc12 | 2.1 |
| CN(C)c1ccc(CCNC(=O)c2[nH]c3ccc(Cl)cc3c2CN=[N+]=[N-])cc1 | 1.2 |
| CCc1c(C(=O)NCCc2ccc(C(=O)c3ccccc3)cc2)[nH]c2ccc(Cl)cc12 | 2.7 |
